# Data: the Kinase Knowledgebase extract (Sharma et al. 2016)
# Molecular target: MAPK14;MAPK11;MAPK12 (human) (UniProt Q16539)
# Assay: Inhibition of p38 Kinase Activity
row,SMILES,IC50 [nM]
1,c1ccc2c(c1)CCN(c1nc(Nc3ccc4ncsc4c3)nc(N3CCNCC3)n1)C2,< 10000
2,Clc1nc(Nc2ccc3ncsc3c2)nc(N[C@H]2C[C@H]2c2ccccc2)n1,< 10000
3,Cc1ccc(C(N)=O)cc1Nc1nc(N[C@H]2CCN(C3CCCC3)C2)nc(N(C)CC(C)(C)C)n1,< 1000
4,CN(CC(C)(C)C)c1nc(N[C@@H]2CCNC2)nc(Sc2cc(C(N)=O)ccc2F)n1,< 30000
5,CC1(C)[C@H]2CCC(COc3nc(Cl)nc(Nc4ccc5ncsc5c4)n3)[C@@H]1C2 (stereo partly drawn),< 10000
6,Cc1ccc(C(N)=O)cc1Nc1nc(NCCc2ccc(O)cc2)nc(N[C@H]2CCNC2)n1,< 1000
7,COc1nc(NCC(C)c2ccccc2)nc(Nc2ccc3ncsc3c2)n1 (stereo not drawn),< 10000
8,Cc1ccc(C(N)=O)cc1Nc1nc(N[C@H]2CCNC2)nc(N(C)CC(C)(C)C)n1,< 1000
9,CONC(=O)c1ccc(C)c(Nc2nc(N(C)CC(C)(C)C)nc(N3CCCN(C)CC3)n2)c1,< 1000
10,Cc1ccc(C(N)=O)cc1Nc1nc(NC[C@@H]2CC[C@H]3C[C@@H]2C3(C)C)nc(N[C@@H]2CCNC2)n1,< 1000
11,CONC(=O)c1ccc(C)c(Nc2nc(N[C@H]3CNC(=O)C3)nc(N(C)CC(C)(C)C)n2)c1,< 1000
12,CONC(=O)c1ccc(C)c(Nc2nc(NCCc3ccccn3)nc(N(C)CC(C)(C)C)n2)c1,< 1000
13,CCOC(=O)N1CCC(N(C)c2nc(Nc3cc(C(N)=O)ccc3C)nc(N(C)CC(C)C)n2)C1 (stereo not drawn),< 1000
14,COc1ccc(C(=O)N(C)CCCN(C)c2nc(NCC(C)c3ccccc3)nc(Nc3ccc4ncsc4c3)n2)cc1 (stereo not drawn),< 10000
15,Clc1cccc(Nc2nc(Cl)nc(Nc3ccc4ncsc4c3)n2)c1,< 10000
16,Clc1nc(Nc2ccc3ncsc3c2)nc(N2CCc3ccccc3C2)n1,< 10000
17,CC(C)c1nc(Nc2ccc3ncsc3c2)nc(N2CCNCC2)n1,< 10000
18,CC(CNc1nc(Nc2ccc3ncsc3c2)nc(N2CCN(S(=O)(=O)N(C)C)CC2)n1)c1ccccc1 (stereo not drawn),< 10000
19,Cc1cc2c(cc1Cl)C(=O)N2c1nc(N[C@H]2CCNC2)nc(N(C)CC(C)(C)C)n1,< 1000
20,CC(C)(Cc1ccccc1)Nc1nc(Nc2ccc3ncsc3c2)nc(N2CCNCC2)n1,< 10000
21,Cc1ccc(C(N)=O)cc1Nc1nc(NC2CCCNC2)nc(N(C)CC(C)C)n1 (stereo not drawn),< 1000
22,Cc1ccc(C(=O)NCC(F)(F)F)cc1Nc1nc(N[C@H]2CCNC2)nc(N(C)CC(C)C)n1,< 1000
23,Cc1ccc(S(N)(=O)=O)cc1Nc1nc(N[C@H]2CCNC2)nc(N(C)CC(C)(C)C)n1,< 1000
24,CCNC(=O)c1ccc(C)c(Nc2nc(NCC(C)(C)C)nc(N[C@H]3CCNC3)n2)c1,< 1000

row,SMILES,IC50 [nM]
1,CC(CNc1nc(Nc2ccc3ncsc3c2)nc(N2CCN(C(=O)c3ccco3)CC2)n1)c1ccccc1 (stereo not drawn),< 10000
2,Cc1ccc(-c2nnc[nH]2)cc1Nc1nc(N[C@@H]2CCNC2)nc(N(C)CC(C)(C)C)n1,< 1000
3,CCOC(=O)N1CCN(c2nc(NC[C@@H]3CC[C@H]4C[C@@H]3C4(C)C)nc(Nc3ccc4ncsc4c3)n2)CC1,< 10000
4,CCN1C[C@@H](Nc2nc(Nc3cc(C(N)=O)ccc3C)nc(N(C)CC(C)(C)C)n2)C[C@H]1C,< 1000
5,CC1(C)[C@H]2CCC(COc3nc(O)nc(Nc4ccc5ncsc5c4)n3)[C@@H]1C2 (stereo partly drawn),< 10000
6,COCCNC(=O)c1ccc(C)c(Nc2nc(N[C@H]3CCNC3)nc(N(C)CC(C)C)n2)c1,< 1000
7,Cc1ccc(C(N)=O)cc1Nc1nc(NC2CCCCC2)nc(N(C)CC(C)(C)C)n1,< 1000
8,NC(=O)C1CCN(c2cc(Nc3ccc4ncsc4c3)nc(NC3CCC3)n2)CC1,< 10000
9,Cn1ccc2cc(Nc3nc(Cl)nc(NC[C@@H]4CC[C@H]5C[C@@H]4C5(C)C)n3)ccc21,< 10000
10,CCNC(=O)c1ccc(C)c(Nc2nc(N[C@H]3CCNC3)nc(N(C)CC3CCCC3)n2)c1,< 1000
11,CONC(=O)c1ccc(C)c(Nc2nc(N(C)CC(C)(C)C)cc(N3CCCN(C)CC3)n2)c1,< 1000
12,CC(C)c1nc(NC[C@@H]2CC[C@@H]3C[C@H]2C3(C)C)nc(Nc2ccc3ncsc3c2)n1,< 10000
13,CC(CNc1nc(Nc2ccc3ncsc3c2)nc(N2CC3CC2CN3C(=O)C2CCOC2)n1)c1ccccc1 (stereo not drawn),< 10000
14,Cc1ccc(C(N)=O)cc1Nc1nc(N[C@H]2CCN(C(C#N)c3ccccc3)C2)nc(N(C)CC(C)C)n1 (stereo partly drawn),< 1000
15,CONC(=O)c1ccc(C)c(Oc2nc(N[C@@H]3CCNC3)nc(N(C)CC(C)(C)C)n2)c1,< 30000
16,COCC(=O)N(C)CCCN(C)c1nc(NCC(C)c2ccccc2)nc(Nc2ccc3ncsc3c2)n1 (stereo not drawn),< 10000
17,Cc1ccc(C(N)=O)cc1Nc1nc(N[C@H]2CCN(C(C)c3ccncc3)C2)nc(N(C)CC(C)C)n1 (stereo partly drawn),< 1000
18,CONC(=O)c1ccc(C)c(Nc2cc(F)nc(N(C)CC(C)(C)C)n2)c1,< 1000
19,CSc1nc2ccc(Nc3nc(NC[C@H](C)O)nc(N[C@@H](C)C4CCCCC4)n3)cc2s1,< 10000
20,Nc1nc(NCCc2ccccc2)nc(Nc2ccc(S(=O)(=O)N(C=O)c3ncccn3)cc2)n1,< 10000
21,CONC(=O)c1ccc(C)c(Nc2nc(NCc3ccccn3)nc(N(C)CC(C)(C)C)n2)c1,< 1000
22,CN(CC1CC[C@H]2C[C@@H]1C2(C)C)c1nc(Nc2ccc3ncsc3c2)nc(N2CCN(C(=O)CCC(=O)O)CC2)n1 (stereo partly drawn),< 10000
23,CONC(=O)c1ccc(C)c(Nc2nc(NCCCn3ccnc3)nc(N(C)CC(C)(C)C)n2)c1,< 1000
24,COc1ccc(CN2CCC(Nc3nc(Nc4cc(C(N)=O)ccc4C)nc(N(C)CC(C)C)n3)C2)cc1 (stereo not drawn),< 1000

row,SMILES,IC50 [nM]
1,c1nc2ccc(Nc3nc(NCC4CCCO4)nc(NC4CC4)n3)cc2s1 (stereo not drawn),< 10000
2,Cc1ccc(C(N)=O)cc1Nc1nc(NC[C@@H]2CC[C@H]3C[C@H]2C3(C)C)nc(N[C@H]2CCNC2)n1,< 1000
3,CONC(=O)c1ccc(C)c(Nc2nc(N[C@@H]3CCCNC3=O)nc(N(C)CC(C)(C)C)n2)c1,< 1000
4,CNCCN(C)c1nc(NC[C@@H](C)c2ccccc2)nc(-n2cnc3ccccc32)n1,< 10000
5,Cc1ccc(C(=O)NCCC(C)C)cc1Nc1nc(N[C@H]2CCNC2)nc(N(C)CC(C)(C)C)n1,< 1000
6,CNCCN(C)c1nc(NCC(C)c2ccccc2)nc(Nc2cccc(Br)c2)n1 (stereo not drawn),< 10000
7,CONC(=O)c1ccc(C)c(Nc2nc(NCc3ccc(Cl)c(Cl)c3)nc(N(C)CC(C)(C)C)n2)c1,< 1000
8,Cc1ccc(C(N)=O)cc1Nc1nc(NCCC(C)(C)C)nc(N[C@@H]2CCNC2)n1,< 1000
9,COc1ncc(CN2CC[C@@H](Nc3nc(Nc4cc(C(N)=O)ccc4C)nc(N(C)CC(C)C)n3)C2)c(OC)n1,< 1000
10,Cc1ccc(C(N)=O)cc1Nc1nc(N[C@H]2CCN(Cc3cccc(O)c3)C2)nc(N(C)CC(C)C)n1,< 1000
11,CN(CC1CCCCC1)c1nc(Nc2ccc3ncsc3c2)nc(N2CCNCC2)n1,< 10000
12,Cc1ccc(C(N)=O)cc1Nc1nc(NCC(C)(C)C)nc(N[C@@H]2CCNC2)n1,< 1000
13,O=C(O)CCC(=O)N1CCN(c2nc(Nc3ccc4ncsc4c3)nc(N3CCc4ccccc4C3)n2)CC1,< 10000
14,Cc1ccc(C(N)=O)cc1N(C)c1nc(NC2CCCC2)nc(N[C@H]2CCNC2)n1,< 1000
15,Cc1ccc(C(N)=O)cc1Nc1nc(NCC2CCC3CC2C3(C)C)nc(NC2CCNC2)n1 (stereo not drawn),< 1000
16,Clc1nc(Nc2ccc3ncsc3c2)nc(N2CCCC(c3ccccc3)C2)n1 (stereo not drawn),< 10000
17,CC(C)NC(=O)N1CC2CC1CN2c1nc(NCC(C)c2ccccc2)nc(Nc2ccc3ncsc3c2)n1 (stereo not drawn),< 10000
18,CCCC1(C)CCN(c2nc(Nc3cc(C(=O)NC)ccc3C)nc(N[C@@H]3CCNC3)n2)C1 (stereo partly drawn),< 1000
19,CCCNC(=O)N1CC[C@@H](Nc2nc(Nc3cc(C(=O)NOC)ccc3C)nc(N(C)CC(C)(C)C)n2)C1,< 1000
20,CNc1nc(NCC(C)c2ccccc2)nc(Nc2ccc3ncsc3c2)n1 (stereo not drawn),< 10000
21,CNCCCN(C)c1nc(NC[C@@H]2CC[C@H]3C[C@@H]2C3(C)C)nc(Nc2ccc3ncsc3c2)n1,< 10000
22,Cc1ccc(C(N)=O)cc1Nc1nc(NC2CCCNC2)nc(N(C)CC(C)(C)C)n1 (stereo not drawn),< 1000
23,Cc1ccc(C(N)=O)cc1Nc1nc(NC2CNC2)nc(N(C)CC(C)(C)C)n1,< 1000
24,CNC(=O)c1ccc(C)c(Oc2nc(N[C@@H]3CCNC3)nc(N(C)CC(C)(C)C)n2)c1,< 30000

row,SMILES,IC50 [nM]
1,CONC(=O)c1ccc(C)c(Nc2nc(NCCCN3CCOCC3)nc(N(C)CC(C)(C)C)n2)c1,< 1000
2,Cc1ccc(CNC(C)C)cc1Nc1nc(N[C@H]2CCNC2)nc(N(C)CC(C)(C)C)n1,< 1000
3,CCCN1CC[C@@H](Nc2nc(Nc3cc(C(N)=O)ccc3C)nc(N(C)CC(C)C)n2)C1,< 1000
4,Cc1ccc(C(=O)O)cc1Nc1nc(N[C@H]2CCNC2)nc(N(C)CC(C)(C)C)n1,< 1000
5,Cc1c(Cl)cc(C(N)=O)cc1Nc1nc(N[C@H]2CCNC2)nc(N(C)CC(C)C)n1,< 1000
6,CC(C)C(=O)N1CC2CC1CN2c1nc(NCC(C)c2ccccc2)nc(Nc2ccc3ncsc3c2)n1 (stereo not drawn),< 10000
7,CONC(=O)c1ccc(C)c(Nc2nc(N(C)CC(C)(C)C)nc(N3CCNCC3)n2)c1,< 1000
8,CC(=O)Nc1ccc(C)c(Nc2nc(N[C@H]3CCNC3)nc(N(C)CC(C)(C)C)n2)c1,< 1000
9,CNCCN(C)c1nc(NCc2ccc(F)cc2F)nc(Nc2ccc3ncsc3c2)n1,< 10000
10,CCCCC(C)c1nc(Nc2cc(C(N)=O)ccc2C)nc(N[C@H]2CCNC2)n1 (stereo partly drawn),< 1000
11,CONC(=O)c1ccc(C)c(Nc2nc(F)cc(N(C)CC(C)(C)C)n2)c1,< 1000
12,CC(=O)N1CCN(c2nc(NCC(C)c3ccccc3)nc(Nc3ccc4ncsc4c3)n2)CC1 (stereo not drawn),< 10000
13,CCCNC(=O)c1ccc(C)c(Nc2nc(O[C@H]3CCNC3)nc(N(C)CC(C)(C)C)n2)c1,< 1000
14,CN1CCCN(c2nc(Sc3cc(C(N)=O)ccc3F)nc(N(C)CC(C)(C)C)n2)CC1,< 30000
15,Cc1ccc(C(N)=O)cc1Nc1nc(O)nc(NC2CCCC2)n1,< 1000
16,Cc1ccc(C(N)=O)cc1Nc1nc(N[C@H]2CCN(S(C)(=O)=O)C2)nc(N(C)CC(C)C)n1,< 1000
17,C=CCN1CC[C@H](Nc2nc(Nc3cc(C(=O)NCC)ccc3C)nc(N(C)CC3CCCC3)n2)C1,< 1000
18,CCNC(=O)N1CC2CC1CN2c1nc(NCC(C)c2ccccc2)nc(Nc2ccc3ncsc3c2)n1 (stereo not drawn),< 10000
19,CC(CNc1nc(Nc2ccc3ncsc3c2)nc(N2CCN(C(=O)c3cccnc3)CC2)n1)c1ccccc1 (stereo not drawn),< 10000
20,CCCCNc1nc(Nc2cc(C(=O)NOC)ccc2C)nc(N(C)CC(C)(C)C)n1,< 1000
21,Cc1ccc(C(N)=O)cc1Nc1nc(NC2CCCC2)nc(N[C@@H]2CCNC2)n1,< 1000
